Source: the NIST ThermoML archive (doi:10.1016/j.jct.2010.08.010)

Conditions: Liquid, Buoyancy - hydrostatic balance with magnetic suspension - one sinker

Cc1ccccc1 [toluene]
Conditions	mass density [kg/m3]
233.15 K, 101.25 kPa	922.207
233.15 K, 1055.6 kPa	922.722
233.15 K, 1861.3 kPa	923.156
233.15 K, 3871.1 kPa	924.223
233.15 K, 5873.9 kPa	925.287
233.15 K, 8031.1 kPa	926.415
233.15 K, 9906.5 kPa	927.392
233.15 K, 11973 kPa	928.445
233.15 K, 13947 kPa	929.451
233.15 K, 15971 kPa	930.461
233.15 K, 18029 kPa	931.487
233.15 K, 19921 kPa	932.422
233.15 K, 22000 kPa	933.432
233.15 K, 24029 kPa	934.411
233.15 K, 25833 kPa	935.279
233.15 K, 27876 kPa	936.25
233.15 K, 29776 kPa	937.146
253.15 K, 102.01 kPa	903.705
253.15 K, 1102.6 kPa	904.316
253.15 K, 1837.1 kPa	904.762
253.15 K, 3915.8 kPa	906
253.15 K, 6024.3 kPa	907.237
253.15 K, 7905.8 kPa	908.333
253.15 K, 9884.5 kPa	909.467
253.15 K, 11995 kPa	910.665
253.15 K, 13975 kPa	911.777
253.15 K, 15951 kPa	912.877
253.15 K, 17978 kPa	913.989
253.15 K, 20022 kPa	915.098
253.15 K, 21921 kPa	916.119
253.15 K, 24088 kPa	917.274
253.15 K, 25990 kPa	918.275
253.15 K, 27827 kPa	919.23
253.15 K, 29746 kPa	920.223
273.15 K, 97.87 kPa	885.25
273.15 K, 1027.8 kPa	885.881
273.15 K, 1996.9 kPa	886.534
273.15 K, 4081.7 kPa	887.926
273.15 K, 5913.4 kPa	889.129
273.15 K, 8004.2 kPa	890.482
273.15 K, 9932.4 kPa	891.714
273.15 K, 11880 kPa	892.948
273.15 K, 13888 kPa	894.195
273.15 K, 16098 kPa	895.56
273.15 K, 18099 kPa	896.771
273.15 K, 19969 kPa	897.897
273.15 K, 21860 kPa	899.011
273.15 K, 23914 kPa	900.215
273.15 K, 25980 kPa	901.41
273.15 K, 28070 kPa	902.607
273.15 K, 30123 kPa	903.766
293.15 K, 99.87 kPa	866.733
293.15 K, 101.56 kPa	866.808
293.15 K, 1103.1 kPa	867.572
293.15 K, 1127.8 kPa	867.518
293.15 K, 1967 kPa	868.206
293.15 K, 2003.6 kPa	868.257
293.15 K, 2021.4 kPa	868.196
293.15 K, 3955.9 kPa	869.643
293.15 K, 4003.3 kPa	869.731
293.15 K, 4004.5 kPa	869.753
293.15 K, 5995 kPa	871.216
293.15 K, 6031.6 kPa	871.224
293.15 K, 6107.1 kPa	871.23
293.15 K, 8032.8 kPa	872.623
293.15 K, 8164.1 kPa	872.766
293.15 K, 8180.3 kPa	872.799
293.15 K, 9984.8 kPa	874.014
293.15 K, 10008 kPa	874.081
293.15 K, 10026 kPa	874.114
293.15 K, 12005 kPa	875.479
293.15 K, 12114 kPa	875.512
293.15 K, 12190 kPa	875.631
293.15 K, 13874 kPa	876.778
293.15 K, 13947 kPa	876.779
293.15 K, 14049 kPa	876.921
293.15 K, 15849 kPa	878.081
293.15 K, 16015 kPa	878.24
293.15 K, 16153 kPa	878.35
293.15 K, 17969 kPa	879.506
293.15 K, 18022 kPa	879.584
293.15 K, 18058 kPa	879.633
293.15 K, 19969 kPa	880.88
293.15 K, 19990 kPa	880.848
293.15 K, 20012 kPa	880.925
293.15 K, 21348 kPa	881.783
293.15 K, 21972 kPa	882.207
293.15 K, 22236 kPa	882.319
293.15 K, 23457 kPa	883.155
293.15 K, 23981 kPa	883.441
293.15 K, 24105 kPa	883.586
293.15 K, 25005 kPa	884.147
293.15 K, 25908 kPa	884.671
293.15 K, 26066 kPa	884.837
293.15 K, 27839 kPa	885.935
293.15 K, 27990 kPa	885.976
293.15 K, 28091 kPa	886.104
293.15 K, 28372 kPa	886.271
293.15 K, 29914 kPa	887.239
293.15 K, 30011 kPa	887.242
313.15 K, 100.25 kPa	848.035
313.15 K, 1103.1 kPa	848.903
313.15 K, 2030.6 kPa	849.693
313.15 K, 3897.3 kPa	851.277
313.15 K, 6141.8 kPa	853.137
313.15 K, 7925.2 kPa	854.59
313.15 K, 9859 kPa	856.142
313.15 K, 11935 kPa	857.774
313.15 K, 13950 kPa	859.327
313.15 K, 16069 kPa	860.941
313.15 K, 17874 kPa	862.289
313.15 K, 19838 kPa	863.738
313.15 K, 22114 kPa	865.383
313.15 K, 24097 kPa	866.799
313.15 K, 25913 kPa	868.068
313.15 K, 28005 kPa	869.523
313.15 K, 29966 kPa	870.863
333.15 K, 98.96 kPa	829.055
333.15 K, 1101 kPa	830.042
333.15 K, 2134.3 kPa	831.05
333.15 K, 4003.8 kPa	832.841
333.15 K, 6105.7 kPa	834.814
333.15 K, 8005 kPa	836.556
